Experimental data: article PMC9732455, “PCW-A1001, AI-assisted de novo design approach to design a selective inhibitor for FLT-3(D835Y) in acute myeloid leukemia” (Frontiers in Molecular Biosciences, 2022)

Key:
FLT-3 WT = molecular target: T1, FLT-3 WT (Homo sapiens, UniProt P36888); assay: in vitro kinase assay (ThermoFisher), dose-response; assay type: biochemical
T1 construct: gene FLT3
T1 sequence (P36888 27-993): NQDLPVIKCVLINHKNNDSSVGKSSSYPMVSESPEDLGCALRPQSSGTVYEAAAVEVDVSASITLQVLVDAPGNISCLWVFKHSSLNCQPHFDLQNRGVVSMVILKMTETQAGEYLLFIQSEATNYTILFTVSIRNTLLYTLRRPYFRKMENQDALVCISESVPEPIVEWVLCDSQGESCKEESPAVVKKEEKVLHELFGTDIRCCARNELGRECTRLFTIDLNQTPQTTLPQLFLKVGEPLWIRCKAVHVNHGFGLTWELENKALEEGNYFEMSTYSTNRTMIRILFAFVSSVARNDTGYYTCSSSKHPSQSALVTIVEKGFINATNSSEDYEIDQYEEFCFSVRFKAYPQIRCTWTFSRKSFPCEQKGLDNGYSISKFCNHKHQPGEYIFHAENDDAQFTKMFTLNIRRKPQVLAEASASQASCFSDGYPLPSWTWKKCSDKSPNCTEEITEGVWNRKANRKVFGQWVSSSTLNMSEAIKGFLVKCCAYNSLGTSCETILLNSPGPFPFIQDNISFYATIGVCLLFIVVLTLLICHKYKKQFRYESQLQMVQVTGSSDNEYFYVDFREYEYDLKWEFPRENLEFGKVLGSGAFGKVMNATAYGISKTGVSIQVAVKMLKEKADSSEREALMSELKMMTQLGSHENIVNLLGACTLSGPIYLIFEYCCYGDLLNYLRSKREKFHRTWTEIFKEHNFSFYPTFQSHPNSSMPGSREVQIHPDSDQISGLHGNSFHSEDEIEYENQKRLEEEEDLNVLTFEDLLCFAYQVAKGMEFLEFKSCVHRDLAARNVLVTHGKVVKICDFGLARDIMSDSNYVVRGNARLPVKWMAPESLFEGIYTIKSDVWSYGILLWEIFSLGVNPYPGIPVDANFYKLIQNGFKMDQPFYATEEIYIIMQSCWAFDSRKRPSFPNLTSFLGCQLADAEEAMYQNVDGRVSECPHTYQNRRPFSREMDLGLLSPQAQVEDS

FLT-3 (D835Y) = molecular target: T2, FLT-3 (D835Y) (Homo sapiens, UniProt P36888, D835Y); assay: as above; assay type: biochemical
T2 construct: gene FLT3
T2 sequence (P36888 564-993 D835Y limits assumed): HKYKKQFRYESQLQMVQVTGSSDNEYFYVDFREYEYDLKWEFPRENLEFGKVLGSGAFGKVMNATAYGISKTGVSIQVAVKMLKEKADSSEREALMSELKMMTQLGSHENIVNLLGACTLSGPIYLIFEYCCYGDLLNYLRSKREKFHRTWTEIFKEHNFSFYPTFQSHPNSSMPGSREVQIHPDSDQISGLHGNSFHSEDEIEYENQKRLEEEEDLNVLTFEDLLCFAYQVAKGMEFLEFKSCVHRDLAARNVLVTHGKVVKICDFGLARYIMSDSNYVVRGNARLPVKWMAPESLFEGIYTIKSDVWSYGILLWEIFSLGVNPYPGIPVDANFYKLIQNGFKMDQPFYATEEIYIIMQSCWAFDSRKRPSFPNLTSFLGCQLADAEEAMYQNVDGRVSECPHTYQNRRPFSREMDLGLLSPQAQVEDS

`CC(C)(C)c1ccc(C(=O)Nc2ccc(C(N)=O)c(NC3CCCNC3)c2)cc1` (centres unmarked) [PCW-A1001] showed an IC50 (FLT-3 WT) of 2540 nM and an IC50 (FLT-3 (D835Y)) of 764 nM.
